Bridge positions count the residues as written; N and C are the ends. Square brackets hold non-standard residues; d marks the D form. Peptide text beside a SMILES is read from it.
Legend:
[1] = test system: total acid output; test: Gastric anti-secretory activity in pylorus-ligated rats; format: in vivo, rat; settings: male Sprague-Dawley rats, pyloric ligation, 2 milligram per kilogram subcutaneous, four-hour test period
Experimental: Male Charles River rats of Sprague-Dawley strain and 190 to 240 grams body weight are food deprived for 24 hours with water ad libitum until the test. Groups of ten rats each are assigned to either control or drug treatment. Pyloric ligation was performed under ether anesthesia through a midline laparotomy, and either control vehicle (0.25 methylcellulose) or drug in control vehicle was administered subcutaneously. The rats are sacrificed by CO2 asphyxiation four hours after pyloric ligation. The stomachs are removed and the gastric contents emptied into graduated centrifuge tubes. The gastric samples are centrifuged for 20 minutes and those obviously contaminated by food, blood or feces are discarded. The volume of gastric fluid is recorded and the acid concentration of 1.0 milliliter sample aliquots is measured by electrometric titration to pH 7.0 with 0.1 N NaOH. The calculated product of gastric volume (ml/4 hr) and acid concentration (mEq/L) estimates the total acid output (TAO, mEq/4 hr) over the four-hour test period.

[2] = test system: growth hormone (GH); test: Growth hormone suppression in arginine-stimulated, Nembutal-anesthetized rats (GH by radioimmunoassay); format: in vivo, rat; settings: for GH: albino male rats, time 15 minutes, arginine stimulation, saline control 90 ± 14, *p <0.01
Experimental: The product of the preceding example illustrates the activity of the compounds of this invention for growth hormone suppression in the following standard procedure:
Albino male rats are administered Nembutal intraperitoneally at a dose of 50 milligrams per kilogram. Fifteen minutes later a subcutaneous injection of the compound of Example 2 or physiological saline (control) is administered. Ten minutes later 0.5 milliliters of arginine (300 milligrams per milliliter, pH 7.2) is injected into the heart. Five minutes after receipt of the arginine the rats are decapitated and blood is collected into trasylol-EDTA. An appropriate aliquot is assayed for growth hormone (GH) by radioimmunoassay.

C[C@@H](O)[C@@H]1NC(=O)[C@H](CCCCN)NC(=O)[C@@H](Cc2c[nH]c3ccccc23)NC(=O)[C@H](Cc2ccccc2)NC(=O)[C@@H](NC(=O)[C@H](Cc2ccc(O)cc2)NC(=O)[C@@H](N)Cc2c[nH]cn2)CSSC[C@@H](C(=O)N[C@@H](Cc2ccccc2)C(=O)O)NC1=O [Example 2, L-Histidyl-L-tyrosyl-L-cysteinyl-L-phenylalanyl-D-tryptophyl-L-lysyl-L-threonyl-L-cysteinyl-L-phenylalanine cyclic (3-8) disulfide] (H-HYCF[dW]KTCF-OH; disulfide 3-8)
decrease of total acid output [1]: 73%
GH ([2]; dose 200 μg/kg subcutaneous): 31 ± 10 ng/mL
GH ([2]; dose 1,000 μg/kg subcutaneous): 41 ± 8 ng/mL
growth hormone suppression potency compared with somatostatin ([2]; rats, subcutaneous): substantially equipotent with somatostatin

C[C@H](N)C(=O)NCC(=O)N[C@H]1CSSC[C@@H](C(=O)O)NC(=O)[C@H](CO)NC(=O)[C@H]([C@@H](C)O)NC(=O)[C@H](Cc2ccccc2)NC(=O)[C@H]([C@@H](C)O)NC(=O)[C@H](CCCCN)NC(=O)[C@H](Cc2c[nH]c3ccccc23)NC(=O)[C@H](Cc2ccccc2)NC(=O)[C@H](Cc2ccccc2)NC(=O)[C@H](CC(N)=O)NC(=O)[C@H](CCCCN)NC1=O [Somatostatin, reference compound]
GH ([2]; dose 200 μg/kg subcutaneous): 34 ± 3 ng/mL

Reference: patent US4440904A, “Nonapeptide anti-secretory agents” (American Home Products Corporation, priority 1983, dated 1984)
